Laboratory results from patent US10828315B2 (Madrigal Pharmaceuticals, Inc., priority 2013, dated 2020).

What was measured:
[1] = test system: human breast cancer cell line BT-474; test: Cytotoxicity assay (CellTiter-Glo, 72 h), BT-474; type: cell-based; details: BT-474, 72 hours, read-out: Cytotoxicity (IC50, nM) BT-474
Method: Cytotoxicity of SDC-TRAP molecules was determined in three cancer cell lines. […] 80 μL of CellTiter-Glo was added to each well, followed by room temperature incubation in the dark for 15 minutes. Cell was determined by luminescence. IC50 was calculated using XLfit™ software.

[2] = Physical appearance of SDC-TRAP-0063 formulations and infusion solutions with different diluents and carbonate buffers; type: physicochemical; details: for Observations (physical appearance): 5% v/v DMSO
Method: First, a stock solution of SDC-TRAP-0063 was prepared in DMSO at 22 mg/mL, then the required amount of tween 80 was added and mixed well.
The above formulation containing SDC-TRAP-0063 was diluted using either D5W, D5W (pH 10.5, adjusted with 4.55 mM NaOH) or carbonate buffer, pH 10) (final drug concentration.: 1 mg/mL SDC-TRAP-0063, 1.8% v/v Tween 80, 5% v/v DMSO). The physical observations on these solutions were noted before and filtration through 0.22μ PES filter and were further observed for 3 hr. Refer to the table below for summary of observations. Note: Carbonate buffer, pH 10 was prepared by mixing 0.1M sodium carbonate (27.5 mL) and 0.1M sodium bicarbonate (22.5 mL) and qs 200 mL with DIW. The total Na content of carbonate buffer was 39 mM.
A stock solution of SDC-TRAP-0063 was prepared in either DMSO or PEG-300. To prepare formulations containing DMSO and tween 80, required amount of tween 80 added to the stock of DMSO (containing SDC-TRAP-0063). The formulations were then was diluted with carbonate buffer, pH 10 (composition: add and mix 0.1M sodium carbonate (27.5 mL) and 0.1M sodium bicarbonate (22.5 mL) and qs 200 mL with DIW). The samples (prepared in glass vial) were mixed well and observed for physical appearance while stirring on a magnetic stirring plate at ambient. (Note-appropriate amounts of SDC-TRAP-0063, tween 80, DMSO and PEG-300, as applicable were used to prepare the solutions at the desired concentrations and drug concentrations at 1 mg/mL through 5 mg/mL as shown).
Carbonate buffers of different pH (pH 9-10) and ionic strengths (with higher (>2) Na contents that SDC-TRAP-0063 on molar basis) were prepared and used for diluting the DMSO/tween 80 formulation loaded with SDC-TRAP-0063 (as described in earlier section 3). The final concentrations of DMSO and tween 80 in the diluted carbonate buffer were 5% v/v and 1.8% v/v respectively. The drug concentration was kept constant (5 mg/mL) for all diluted samples.

CCc1c2c(nc3ccc(OC(=O)N4CCC(CCn5ccc6cc(-n7c(O)nnc7-c7cc(C(C)C)c(O)cc7O)ccc65)CC4)cc13)-c1cc3c(c(=O)n1C2)COC(=O)[C@]3(O)CC [SDC-TRAP-0063, 4,11-diethyl-4-hydroxy-3,14-dioxo-3,4,12,14-tetrahydro-1H-pyrano[3′,4′:6,7]indolizino[1,2-b]quinolin-9-yl 4-(2-(5-(3-(2,4-dihydroxy-5-isopropylphenyl)-5-hydroxy-4H-1,2,4-triazol-4-yl)-1H-indol-1-yl)ethyl)piperidine-1-carboxylate]
IC50 [1]: 320 nM
physical appearance of stock solution ([2]; 22 mg/mL in DMSO, and after addition of tween 80): clear and homogenous
physical appearance after dilution with carbonate buffer, pH 10 ([2]; 5% v/v DMSO + […] v/v tween 80, 1-5 mg/mL): clear at 2 hr of stirring
Observations (physical appearance) ([2]; […] v/v Tween 80, carbonate buffer pH 10 (39 mM Na), 1 mg/mL, 30 min): Clear
Observations (physical appearance) ([2]; […] v/v Tween 80, carbonate buffer pH 10 (39 mM Na), 1 mg/mL, 1 h): Clear
Observations (physical appearance) ([2]; […] v/v Tween 80, carbonate buffer pH 10 (39 mM Na), 1 mg/mL, 2 h): Clear
Observations (physical appearance) ([2]; […] v/v Tween 80, carbonate buffer pH 10 (39 mM Na), 1 mg/mL, Initial): Clear
Observations (physical appearance) ([2]; […] v/v Tween 80, carbonate buffer pH 10 (39 mM Na), 1 mg/mL, Overnight): Clear
Observations (physical appearance) ([2]; […] v/v Tween 80, carbonate buffer pH 10 (39 mM Na), 2 mg/mL, 30 min): Clear
Observations (physical appearance) ([2]; […] v/v Tween 80, carbonate buffer pH 10 (39 mM Na), 2 mg/mL, 1 h): Clear
Observations (physical appearance) ([2]; […] v/v Tween 80, carbonate buffer pH 10 (39 mM Na), 2 mg/mL, 2 h): Clear
Observations (physical appearance) ([2]; […] v/v Tween 80, carbonate buffer pH 10 (39 mM Na), 2 mg/mL, Initial): Clear
Observations (physical appearance) ([2]; […] v/v Tween 80, carbonate buffer pH 10 (39 mM Na), 2 mg/mL, Overnight): Clear
Observations (physical appearance) ([2]; […] v/v Tween 80, carbonate buffer pH 10 (39 mM Na), 3 mg/mL, 30 min): Cloudy
Observations (physical appearance) ([2]; […] v/v Tween 80, carbonate buffer pH 10 (39 mM Na), 3 mg/mL, 1 h): Clear
Observations (physical appearance) ([2]; […] v/v Tween 80, carbonate buffer pH 10 (39 mM Na), 3 mg/mL, 2 h): Clear
Observations (physical appearance) ([2]; […] v/v Tween 80, carbonate buffer pH 10 (39 mM Na), 3 mg/mL, Initial): Cloudy
Observations (physical appearance) ([2]; […] v/v Tween 80, carbonate buffer pH 10 (39 mM Na), 3 mg/mL, Overnight): Clear
Observations (physical appearance) ([2]; […] v/v Tween 80, carbonate buffer pH 10 (39 mM Na), 4 mg/mL, 30 min): Cloudy
Observations (physical appearance) ([2]; […] v/v Tween 80, carbonate buffer pH 10 (39 mM Na), 4 mg/mL, 1 h): Cloudy
Observations (physical appearance) ([2]; […] v/v Tween 80, carbonate buffer pH 10 (39 mM Na), 4 mg/mL, 2 h): Clear
Observations (physical appearance) ([2]; […] v/v Tween 80, carbonate buffer pH 10 (39 mM Na), 4 mg/mL, Initial): Cloudy
Observations (physical appearance) ([2]; […] v/v Tween 80, carbonate buffer pH 10 (39 mM Na), 4 mg/mL, Overnight): Clear
Observations (physical appearance) ([2]; […] v/v Tween 80, carbonate buffer pH 10 (39 mM Na), 5 mg/mL, 30 min): Cloudy
Observations (physical appearance) ([2]; […] v/v Tween 80, carbonate buffer pH 10 (39 mM Na), 5 mg/mL, 1 h): Cloudy
Observations (physical appearance) ([2]; […] v/v Tween 80, carbonate buffer pH 10 (39 mM Na), 5 mg/mL, 2 h): Clear
Observations (physical appearance) ([2]; […] v/v Tween 80, carbonate buffer pH 10 (39 mM Na), 5 mg/mL, Initial): Cloudy
Observations (physical appearance) ([2]; […] v/v Tween 80, carbonate buffer pH 10 (39 mM Na), 5 mg/mL, Overnight): Clear
Observations (physical appearance) ([2]; […] v/v Tween 80, 5 mg/mL, Carbonate buffer, pH 9.2 (25 mM Na), 1 h): Cloudy
Observations (physical appearance) ([2]; […] v/v Tween 80, 5 mg/mL, Carbonate buffer, pH 9.2 (25 mM Na), 2 h): Cloudy
Observations (physical appearance) ([2]; […] v/v Tween 80, 5 mg/mL, Carbonate buffer, pH 9.2 (25 mM Na), 3 h): Cloudy
Observations (physical appearance) ([2]; […] v/v Tween 80, 5 mg/mL, Carbonate buffer, pH 9.2 (25 mM Na), Initial): Cloudy
Observations (physical appearance) ([2]; […] v/v Tween 80, 5 mg/mL, Carbonate buffer, pH 9.2 (25 mM Na), Overnight): Cloudy
Observations (physical appearance) ([2]; […] v/v Tween 80, 5 mg/mL, Carbonate buffer, pH 9.5 (26.5 mM Na), 1 h): Cloudy
Observations (physical appearance) ([2]; […] v/v Tween 80, 5 mg/mL, Carbonate buffer, pH 9.5 (26.5 mM Na), 2 h): Cloudy
Observations (physical appearance) ([2]; […] v/v Tween 80, 5 mg/mL, Carbonate buffer, pH 9.5 (26.5 mM Na), 3 h): Cloudy
Observations (physical appearance) ([2]; […] v/v Tween 80, 5 mg/mL, Carbonate buffer, pH 9.5 (26.5 mM Na), Initial): Cloudy
Observations (physical appearance) ([2]; […] v/v Tween 80, 5 mg/mL, Carbonate buffer, pH 9.5 (26.5 mM Na), Overnight): Cloudy
Observations (physical appearance) ([2]; […] v/v Tween 80, 5 mg/mL, Carbonate buffer, pH 9.5 ([…] Na), 1 h): Cloudy
Observations (physical appearance) ([2]; […] v/v Tween 80, 5 mg/mL, Carbonate buffer, pH 9.5 ([…] Na), 2 h): Cloudy
Observations (physical appearance) ([2]; […] v/v Tween 80, 5 mg/mL, Carbonate buffer, pH 9.5 ([…] Na), 3 h): Clear
Observations (physical appearance) ([2]; […] v/v Tween 80, 5 mg/mL, Carbonate buffer, pH 9.5 ([…] Na), Initial): Cloudy
Observations (physical appearance) ([2]; […] v/v Tween 80, 5 mg/mL, Carbonate buffer, pH 9.5 ([…] Na), Overnight): Clear
Observations (physical appearance) ([2]; […] v/v Tween 80, 5 mg/mL, Carbonate buffer, pH 10 (39 mM Na), 1 h): Cloudy
Observations (physical appearance) ([2]; […] v/v Tween 80, 5 mg/mL, Carbonate buffer, pH 10 (39 mM Na), 2 h): Clear yellow
Observations (physical appearance) ([2]; […] v/v Tween 80, 5 mg/mL, Carbonate buffer, pH 10 (39 mM Na), 3 h): Clear yellow
Observations (physical appearance) ([2]; […] v/v Tween 80, 5 mg/mL, Carbonate buffer, pH 10 (39 mM Na), Initial): Cloudy
Observations (physical appearance) ([2]; […] v/v Tween 80, 5 mg/mL, Carbonate buffer, pH 10 (39 mM Na), Overnight): Clear yellow
Observations (physical appearance) ([2]; […] v/v Tween 80, 5 mg/mL, Carbonate buffer, pH 10 (155 mM Na), 1 h): Clear
Observations (physical appearance) ([2]; […] v/v Tween 80, 5 mg/mL, Carbonate buffer, pH 10 (155 mM Na), 2 h): Clear yellow
Observations (physical appearance) ([2]; […] v/v Tween 80, 5 mg/mL, Carbonate buffer, pH 10 (155 mM Na), 3 h): Clear yellow
Observations (physical appearance) ([2]; […] v/v Tween 80, 5 mg/mL, Carbonate buffer, pH 10 (155 mM Na), Initial): Cloudy
Observations (physical appearance) ([2]; […] v/v Tween 80, 5 mg/mL, Carbonate buffer, pH 10 (155 mM Na), Overnight): Clear yellow
Observations (physical appearance) ([2]; carbonate buffer pH 10 (39 mM Na), 1 mg/mL, 30 min): Cloudy
Observations (physical appearance) ([2]; carbonate buffer pH 10 (39 mM Na), 1 mg/mL, 1 h): Cloudy
